This note sets out measurements from patent US8673906B2, “Chromenone derivatives” (AstraZeneca AB, priority 2010, dated 2014).

One may read the IC50 as the concentration needed to halve the response being measured.

The test deals with PI3Kβ (Homo sapiens (Human), UniProt P42338). Briefly: In vitro enzyme inhibition assay (Kinase Glo based enzyme activity assay). Conditions: Test (a), human recombinant enzyme; read-out: PI3Kβ inhibition, IC50. It is filed as biochemical. The procedure: (a) In Vitro Enzyme Inhibition Assay
PI3Kβ, sequence (P42338 whole entry): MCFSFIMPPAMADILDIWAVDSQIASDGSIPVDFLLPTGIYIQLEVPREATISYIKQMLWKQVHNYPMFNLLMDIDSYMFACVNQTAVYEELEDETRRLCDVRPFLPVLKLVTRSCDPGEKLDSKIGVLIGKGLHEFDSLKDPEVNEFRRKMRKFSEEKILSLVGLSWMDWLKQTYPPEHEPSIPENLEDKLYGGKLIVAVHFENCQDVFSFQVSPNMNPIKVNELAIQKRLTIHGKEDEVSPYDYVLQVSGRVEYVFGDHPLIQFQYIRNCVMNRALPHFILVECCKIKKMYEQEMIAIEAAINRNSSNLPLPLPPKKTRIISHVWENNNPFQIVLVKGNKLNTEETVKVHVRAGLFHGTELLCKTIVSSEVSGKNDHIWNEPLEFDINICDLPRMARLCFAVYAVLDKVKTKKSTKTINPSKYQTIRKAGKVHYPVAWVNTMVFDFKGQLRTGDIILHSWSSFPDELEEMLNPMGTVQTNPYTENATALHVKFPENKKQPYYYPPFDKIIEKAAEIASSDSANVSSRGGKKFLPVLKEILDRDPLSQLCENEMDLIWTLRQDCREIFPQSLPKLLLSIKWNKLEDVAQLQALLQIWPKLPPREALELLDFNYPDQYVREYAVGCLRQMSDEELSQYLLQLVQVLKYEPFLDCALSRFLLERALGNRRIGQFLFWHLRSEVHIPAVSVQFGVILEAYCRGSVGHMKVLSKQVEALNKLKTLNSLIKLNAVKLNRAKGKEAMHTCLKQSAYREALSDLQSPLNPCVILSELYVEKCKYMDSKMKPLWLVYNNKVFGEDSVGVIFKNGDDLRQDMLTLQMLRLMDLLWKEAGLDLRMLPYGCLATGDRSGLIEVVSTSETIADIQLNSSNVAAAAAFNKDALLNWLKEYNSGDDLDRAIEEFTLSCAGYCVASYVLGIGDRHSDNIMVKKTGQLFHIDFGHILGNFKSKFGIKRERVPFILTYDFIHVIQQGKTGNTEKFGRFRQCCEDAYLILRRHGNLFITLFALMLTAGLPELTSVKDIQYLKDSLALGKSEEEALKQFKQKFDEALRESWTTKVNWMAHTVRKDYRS
PI3Kβ, sequence (P27986 whole entry partner): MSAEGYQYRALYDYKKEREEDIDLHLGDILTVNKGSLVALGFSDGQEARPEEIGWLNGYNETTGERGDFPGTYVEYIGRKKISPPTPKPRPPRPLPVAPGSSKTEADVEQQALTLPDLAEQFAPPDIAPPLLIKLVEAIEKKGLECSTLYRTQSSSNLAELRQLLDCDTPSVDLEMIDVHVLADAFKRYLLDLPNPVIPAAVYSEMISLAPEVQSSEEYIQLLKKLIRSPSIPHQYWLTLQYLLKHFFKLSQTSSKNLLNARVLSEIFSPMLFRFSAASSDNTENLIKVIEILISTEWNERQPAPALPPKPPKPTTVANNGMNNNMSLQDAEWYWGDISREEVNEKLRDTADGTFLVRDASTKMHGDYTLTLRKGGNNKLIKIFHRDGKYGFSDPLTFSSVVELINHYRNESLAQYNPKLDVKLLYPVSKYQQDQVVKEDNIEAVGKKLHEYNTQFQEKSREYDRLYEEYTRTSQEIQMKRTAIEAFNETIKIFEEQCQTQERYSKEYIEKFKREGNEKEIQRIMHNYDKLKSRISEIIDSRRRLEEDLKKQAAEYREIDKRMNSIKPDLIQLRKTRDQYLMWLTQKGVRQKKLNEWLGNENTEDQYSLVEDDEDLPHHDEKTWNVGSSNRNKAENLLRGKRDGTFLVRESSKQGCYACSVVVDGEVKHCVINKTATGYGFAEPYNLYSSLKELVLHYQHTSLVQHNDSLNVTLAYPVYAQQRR
The inhibition of PI3Kβ, PI3Kα, PI3Kγ and PI3Kδ was evaluated in a Kinase Glo based enzyme activity assay using human recombinant enzymes. The assay measures depletion of ATP after incubation with enzyme, PIP2 and ATP plus compound. ATP at the end of the reaction is detected by addition of Kinase Glo reagent, in this the Ultra Glo™ luciferase (Promega) uses the ATP as a substrate to catalyze the mono-oxygenation of luciferin and the generation of light. A direct relationship exists between the luminescence measured with the Kinase-Glo Plus Reagent and the amount of ATP remaining in a completed kinase reaction and luminescence is inversely related to kinase activity. Twelve different compound concentrations were tested and raw data from the inhibition of PI3 Kb, PI3Kα, PI3Kγ and PI3Kδ was plotted versus inhibitor concentration.
Compounds in 100% DMSO were added to assay plates by acoustic dispensing. PI3Kβ was added in a Tris buffer (50 mM Tris pH7.4, 0.05% CHAPS, 2.1 mM DTT, and 10 mM MgCl2) and allowed to preincubate with compound for 20 minutes prior to addition of substrate solution containing PIP2 and ATP. The enzyme reaction was stopped after 80 minutes by the addition of Kinase Glo detection solution. Plates were left for 30 minutes at room temperature then read on a Pherastar Instrument (Luminescence ATP 384 program) setting gain on max well. The final concentration of DMSO, ATP and PIP2 in the assay were, 1%, 80 μM, and 80 μM respectively.
IC50 values were calculated using a log curve fitting to a non-linear regression package, fitting raw data to inhibitor concentration.
With `CC(Nc1cccc(Cl)c1)c1cc(C(=O)N(C)C)cc2c(=O)cc(N3CCOCC3)oc12` (stereo not drawn) [Example 3.09, 8-(1-(3-chlorophenylamino)ethyl)-N,N-dimethyl-2-morpholino-4-oxo-4H-chromene-6-carboxamide], the half-inhibitory concentration (IC50) turned out to be 4 nM. On to `CC(Nc1ccc(F)c(F)c1)c1cc(C(=O)N(C)C)cc2c(=O)cc(N3CCOCC3)oc12` (single isomer, unassigned) [Example 3.03a, 8-(1-(3,4-difluorophenylamino)ethyl)-N,N-dimethyl-2-morpholino-4-oxo-4H-chromene-6-carboxamide], for which the IC50 came to 649 nM. For the molecule `COc1cc(F)cc(NC(C)c2cc(C(=O)N(C)C)cc3c(=O)cc(N4CCOCC4)oc23)c1` (stereo not drawn) [Example 3.30, 8-(1-(3-fluoro-5-methoxyphenylamino)ethyl)-N,N-dimethyl-2-morpholino-4-oxo-4H-chromene-6-carboxamide], the IC50 came to 4 nM. `CCN(CC)C(=O)c1cc(C(C)Nc2cc(F)cc(F)c2)c2oc(N3CCOCC3)cc(=O)c2c1` (stereo not drawn) [Example 4.01, 8-(1-(3,5-difluorophenylamino)ethyl)-N,N-diethyl-2-morpholino-4-oxo-4H-chromene-6-carboxamide]: the IC50 is 4 nM. In the case of `CC(Nc1ccc(F)cc1)c1cc(C(=O)N(C)CCN(C)C)cc2c(=O)cc(N3CCOCC3)oc12` (stereo not drawn) [Example 2.02, N-(2-(dimethylamino)ethyl)-8-(1-(4-fluorophenylamino)ethyl)-N-methyl-2-morpholino-4-oxo-4H-chromene-6-carboxamide], the IC50 worked out at 7 nM. As to `Cc1c(C#N)cccc1NC(C)c1cc(C(=O)N(C)C)cc2c(=O)cc(N3CCOCC3)oc12` (stereo not drawn) [Example 3.29, 8-(1-(3-cyano-2-methylphenylamino)ethyl)-N,N-dimethyl-2-morpholino-4-oxo-4H-chromene-6-carboxamide], the IC50 worked out at 5 nM.

Take `CC(Nc1cc(F)cc(F)c1)c1cc(C(=O)NCCF)cc2c(=O)cc(N3CCOCC3)oc12` (stereo not drawn) [Example 4.18, 8-(1-(3,5-difluorophenylamino)ethyl)-N-(2-fluoroethyl)-2-morpholino-4-oxo-4H-chromene-6-carboxamide]: the IC50 was 4 nM. `CC(c1cc(C(=O)N(C)C)cc2c(=O)cc(N3CCO[C@H](C)C3)oc12)N(C)c1cc(F)cc(F)c1` (stereo partly drawn) [Example 10.01, 8-(1-((3,5-difluorophenyl)(methyl)amino)ethyl)-N,N-dimethyl-2-((R)-2-methylmorpholino)-4-oxo-4H-chromene-6-carboxamide]: the IC50 came to 12 nM. The result for `CCNC(=O)c1cc(C(C)Nc2cc(F)cc(F)c2)c2oc(N3CCOCC3)cc(=O)c2c1` (stereo not drawn) [Example 4.17, 8-(1-(3,5-difluorophenylamino)ethyl)-N-ethyl-2-morpholino-4-oxo-4H-chromene-6-carboxamide] reads 5 nM. Consider `CC(Nc1ccc(F)c(Cl)c1)c1cc(C(=O)N2CCC(O)CC2)cc2c(=O)cc(N3CCOCC3)oc12` (stereo not drawn) [Example 2.03, 8-(1-(3-chloro-4-fluorophenylamino)ethyl)-6-(4-hydroxypiperidine-1-carbonyl)-2-morpholino-4h-chromen-4-one], for which the IC50 stood at 6 nM. Turning to `CC(Nc1cccc(C#N)c1)c1cc(C(=O)N(C)C)cc2c(=O)cc(N3CCOCC3)oc12` (stereo not drawn) [Example 3.18, 8-(1-(3-cyanophenylamino)ethyl)-N,N-dimethyl-2-morpholino-4-oxo-4H-chromene-6-carboxamide], the IC50 stood at 10 nM. Regarding `CC(Nc1c(F)ccc(Cl)c1F)c1cc(C(=O)N(C)C)cc2c(=O)cc(N3CCOCC3)oc12` (stereo not drawn) [Example 3.32, 8-(1-(3-chloro-2,6-difluorophenylamino)ethyl)-N,N-dimethyl-2-morpholino-4-oxo-4H-chromene-6-carboxamide], the IC50 was determined as 8 nM.

`COc1c(F)cccc1NC(C)c1cc(C(=O)N(C)C)cc2c(=O)cc(N3CCOCC3)oc12` (stereo not drawn) [Example 3.31, 8-(1-(3-fluoro-2-methoxyphenylamino)ethyl)-N,N-dimethyl-2-morpholino-4-oxo-4H-chromene-6-carboxamide]: the IC50 turned out to be 6 nM. On to `COc1ccc(F)cc1NC(C)c1cc(C(=O)N(C)C)cc2c(=O)cc(N3CCOCC3)oc12` (stereo not drawn) [Example 3.24, 8-(1-(5-fluoro-2-methoxyphenylamino)ethyl)-N,N-dimethyl-2-morpholino-4-oxo-4H-chromene-6-carboxamide], for which the IC50 turned out to be 6 nM. `CC(c1cc(C(=O)N(C)C)cc2c(=O)cc(N3CCOCC3)oc12)N(C)c1cc(F)cc(Cl)c1` (stereo not drawn) [Example 3.37, 8-(1-((3-chloro-5-fluorophenyl)(methyl)amino)ethyl)-N,N-dimethyl-2-morpholino-4-oxo-4H-chromene-6-carboxamide]: the IC50 was 12 nM. The result for `CCCNC(=O)c1cc(C(C)Nc2cc(F)cc(F)c2)c2oc(N3CCOCC3)cc(=O)c2c1` (stereo not drawn) [Example 4.16, 8-(1-(3,5-difluorophenylamino)ethyl)-2-morpholino-4-oxo-N-propyl-4H-chromene-6-carboxamide] reads 9 nM; that for `CC(Nc1cccc(Cl)c1F)c1cc(C(=O)NCCN(C)C)cc2c(=O)cc(N3CCOCC3)oc12` (stereo not drawn) [Example 2.00, 8-(1-(3-chloro-2-fluorophenylamino)ethyl)-N-(2-(dimethylamino)ethyl)-2-morpholino-4-oxo-4H-chromene-6-carboxamide], 9 nM. Regarding `COCCNC(=O)c1cc(C(C)Nc2cc(F)cc(F)c2)c2oc(N3CCOCC3)cc(=O)c2c1` (stereo not drawn) [Example 4.15, 8-(1-(3,5-difluorophenylamino)ethyl)-N-(2-methoxyethyl)-2-morpholino-4-oxo-4H-chromene-6-carboxamide], the IC50 is 4 nM.

On to `CC(Nc1cc(F)cc(F)c1)c1cc(C(=O)N(C)C)cc2c(=O)cc(N3CCO[C@@H](C)C3)oc12` (single isomer, unassigned) [Example 9.02b], for which the IC50 came out at 7 nM.

Regarding `CC(Nc1cc(F)cc(F)c1)c1cc(C(=O)N2CCCCCC2)cc2c(=O)cc(N3CCOCC3)oc12` (stereo not drawn) [Example 4.06, 6-(azepane-1-carbonyl)-8-(1-(3,5-difluorophenylamino)ethyl)-2-morpholino-4H-chromen-4-one], the IC50 was 4 nM.

In the case of `CC(Nc1cc(Cl)cc(Cl)c1)c1cc(C(=O)N(C)C)cc2c(=O)cc(N3CCOCC3)oc12` (stereo not drawn) [Example 3.33, 8-(1-(3,5-dichlorophenylamino)ethyl)-N,N-dimethyl-2-morpholino-4-oxo-4H-chromene-6-carboxamide], the IC50 came to 5 nM. Turning to `CC(Nc1c(F)ccc(F)c1F)c1cc(C(=O)N(C)C)cc2c(=O)cc(N3CCOCC3)oc12` (stereo not drawn) [Example 3.27, N,N-dimethyl-2-morpholino-4-oxo-8-(1-(2,3,6-trifluorophenylamino)ethyl)-4H-chromene-6-carboxamide], the 50% inhibitory concentration (IC50) stood at 9 nM.

Consider `CC(Nc1cc(F)cc(F)c1)c1cc(C(=O)N2CCCCC2)cc2c(=O)cc(N3CCOCC3)oc12` (stereo not drawn) [Example 4.10, 8-(1-(3,5-difluorophenylamino)ethyl)-2-morpholino-6-(piperidine-1-carbonyl)-4H-chromen-4-one], for which the IC50 was 5 nM.

Regarding `CC(Nc1cc(F)cc(F)c1)c1cc(C(=O)N(C)C)cc2c(=O)cc(N3CCOC[C@@H]3C)oc12` (stereo partly drawn) [Example 11.00, 8-(1-(3,5-difluorophenylamino)ethyl)-N,N-dimethyl-2-((S)-3-methylmorpholino)-4-oxo-4H-chromene-6-carboxamide], the IC50 turned out to be 21 nM. `CC(Nc1cc(F)cc(F)c1)c1cc(C(=O)N(C)C)cc2c(=O)cc(N3CCO[C@@H](C)C3)oc12` (stereo partly drawn) [Example 9.02, 8-(1-(3,5-difluorophenylamino)ethyl)-N,N-dimethyl-2-((S)-2-methylmorpholino)-4-oxo-4H-chromene-6-carboxamide]: the IC50 came out at 11 nM. On to `CC(Nc1cccc(F)c1)c1cc(C(=O)NCCN(C)C)cc2c(=O)cc(N3CCOCC3)oc12` (stereo not drawn) [Example 1.01, N-(2-(dimethylamino)ethyl)-8-(1-(3-fluorophenylamino)ethyl)-2-morpholino-4-oxo-4H-chromene-6-carboxamide], for which the IC50 turned out to be 1 nM. On to `CC(c1cc(C(=O)N(C)C)cc2c(=O)cc(N3CCOCC3)oc12)N(C)c1ccccc1` (stereo not drawn) [Example 3.40, N,N-dimethyl-8-(1-(methyl(phenyl)amino)ethyl)-2-morpholino-4-oxo-4H-chromene-6-carboxamide], for which the IC50 turned out to be 43 nM.

`CC(Nc1cc(F)cc(F)c1)c1cc(C(=O)N2CC(F)C2)cc2c(=O)cc(N3CCOCC3)oc12` (stereo not drawn) [Example 4.13, 8-(1-(3,5-difluorophenylamino)ethyl)-6-(3-fluoroazetidine-1-carbonyl)-2-morpholino-4H-chromen-4-one]: the IC50 amounted to 9 nM.

For the molecule `CC(c1cc(C(=O)N(C)CCN(C)C)cc2c(=O)cc(N3CCOCC3)oc12)N(C)c1ccc(F)cc1` (stereo not drawn) [Example 3.02, N-(2-(dimethylamino)ethyl)-8-(1-((4-fluorophenyl)(methyl)amino)ethyl)-N-methyl-2-morpholino-4-oxo-4H-chromene-6-carboxamide], the concentration for half-maximal inhibition (IC50) was found to be 11 nM. The result for `CC(c1cc(C(=O)N(C)C)cc2c(=O)cc(N3CCOCC3)oc12)N(C)c1ccc(F)c(Cl)c1` (stereo not drawn) [Example 3.08, 8-(1-((3-chloro-4-fluorophenyl)(methyl)amino)ethyl)-N,N-dimethyl-2-morpholino-4-oxo-4H-chromene-6-carboxamide] reads 11 nM.
